Assay results reported in patent US20050217538A1, “Modified Calcium Phosphate Bone Cement” (TECHNISCHE UNIVERSITAT DRESDEN, priority 2004, published 2005).

Test: pH, calcium and phosphate contents of the solution surrounding the cement during the setting process
Format: physicochemical
Procedure: The ion concentrations of the solutions surrounding the cement were determined in that during the setting process samples of the solution were taken regularly and analyzed with regard to pH value (glass electrode), calcium contents and phosphate contents (photometric method), in accordance with the procedure described in connection with Example 2. No deviations into cell and tissue damaging pH ranges (pH<7 and pH>8) were measured. The determined calcium and phosphate ion concentrations were also at a level that is well tolerated by cells and tissue.
The ion concentrations of the solution surrounding the cement were determined in that during the setting process samples of the solution were taken regularly and analyzed with regard to pH value (glass electrode), calcium contents and phosphate contents (photometric method). […]
The ion concentration of the solution surrounding the bone cement was determined in that during the setting process regularly samples of the solution were taken and analyzed with regard to pH value (glass electrode), calcium contents and phosphate contents (photometric method). […] The determined calcium and phosphate ion concentrations were also at a level that is well tolerated by cells and tissue. […]

calcium concentration of the surrounding medium: approximately 2.5 mmol/l
SMILES: Cc1ncc(C[n+]2csc(CCO[P@](=O)(O)OP(=O)(O)O)c2C)c(N)n1 [Thiamine pyrophosphate, thiamine pyrophosphate]
